For data set [1], the target named is JAK3 (Homo sapiens (Human), UniProt P52333). As to the kind of experiment: JAK kinase assay (HTRF), JAK3. Type of data set: biochemical. To be noted: catalytic domain, ATP at Km (2 μM). The gist of the method: (§1)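 Catalytic-domain human kinases, GST-tagged TYK2 (aa 871-1187) and His-tagged JAK3, phosphorylate 1 μM TK Substrate-Biotin for 20-30 min at RT in 50 mM Hepes pH 7.0, 5 mM MgCl2, ATP at Km (TYK2 13 μM with 50 nM SEB; JAK3 2 μM). Phosphorylation detected by HTRF.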
Sequence of JAK3 (P52333 822-1111): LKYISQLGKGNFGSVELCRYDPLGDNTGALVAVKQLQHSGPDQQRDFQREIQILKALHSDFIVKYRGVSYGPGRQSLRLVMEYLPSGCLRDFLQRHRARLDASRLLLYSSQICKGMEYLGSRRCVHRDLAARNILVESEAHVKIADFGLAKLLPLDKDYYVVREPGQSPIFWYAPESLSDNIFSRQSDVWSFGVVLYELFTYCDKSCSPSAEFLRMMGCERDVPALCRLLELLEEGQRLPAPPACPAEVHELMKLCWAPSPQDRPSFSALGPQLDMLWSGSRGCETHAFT
(In general: TR-FRET usually uses a lanthanide donor and a delayed reading to cut background.)

Data set [2] concerns the target JAK1 (Homo sapiens (Human), UniProt P23458). As to the kind of experiment: JAK kinase assay (HTRF), JAK1. Type of data set: biochemical. To be noted: catalytic domain, ATP at Km (7 μM). The gist of the method: (§2)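 Catalytic-domain human JAK1 (GST-tagged, aa 850-1154) or His-tagged JAK2, baculovirus-expressed, phosphorylated 1 µM biotinylated TK peptide at Km ATP (JAK1 7 µM, 10 mM MgCl2, 50 nM SEB; JAK2 4 µM, 5 mM MgCl2) in pH 7.0 Hepes, 20-30 min RT. EDTA stop; overnight streptavidin-XL665/cryptate HTRF read.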

Data set [3] is described as follows: in vitro metabolic stability in human liver microsomes. Type of data set: in vitro ADME. To be noted: human, liver microsomes, 0.5 μM compound, 0.5 mg/mL microsomes, NADPH, 40 min, 37° C.; read-out: Human liver microsome Clapp (apparent intrinsic clearance). The protocol: To assess the in vitro metabolic stability, the compounds (0.5 μM) were incubated in duplicates with human liver microsomes (0.5 mg/mL) in phosphate buffer and NADPH, in 96-well plates for 40 min (37° C.), using a liquid handling robot (Hamilton Microlab Star). Sample aliquots were taken at 0, 5, 10, 20 and 40 min, and dispensed into cold acetonitrile, in order to stop the reactions. The plates were centrifuged for 30 minutes before the samples were analyzed using liquid chromatography coupled to a time-of-flight mass spectrometer (AB Sciex API5600). The compound depletion over time was used to estimate the elimination rate constant, from which the apparent intrinsic clearance, Clapp, was calculated and the values are listed in Table 2.

The target in data set [4] is JAK2 (Homo sapiens (Human), UniProt O60674). Nature of the data set: JAK kinase assay (HTRF), JAK2. As to conditions: catalytic domain, ATP at Km (4 μM). It counts as biochemical. The method, boiled down: as §2
Sequence of JAK2 (O60674 849-1124): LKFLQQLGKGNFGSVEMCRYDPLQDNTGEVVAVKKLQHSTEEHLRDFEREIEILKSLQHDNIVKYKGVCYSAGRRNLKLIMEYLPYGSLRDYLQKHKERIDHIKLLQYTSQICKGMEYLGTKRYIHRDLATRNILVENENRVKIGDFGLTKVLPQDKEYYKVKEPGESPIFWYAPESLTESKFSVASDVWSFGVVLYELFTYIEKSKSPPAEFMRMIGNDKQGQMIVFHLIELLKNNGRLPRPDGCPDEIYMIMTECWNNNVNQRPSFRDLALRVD
In data set [5] the target is TYK2 (Homo sapiens (Human), UniProt P29597). As to the kind of experiment: JAK kinase assay (HTRF), TYK2. Type of data set: biochemical. To be noted: catalytic domain, ATP at Km (13 μM). The gist of the method: as §1
Sequence of TYK2 (P29597 871-1187): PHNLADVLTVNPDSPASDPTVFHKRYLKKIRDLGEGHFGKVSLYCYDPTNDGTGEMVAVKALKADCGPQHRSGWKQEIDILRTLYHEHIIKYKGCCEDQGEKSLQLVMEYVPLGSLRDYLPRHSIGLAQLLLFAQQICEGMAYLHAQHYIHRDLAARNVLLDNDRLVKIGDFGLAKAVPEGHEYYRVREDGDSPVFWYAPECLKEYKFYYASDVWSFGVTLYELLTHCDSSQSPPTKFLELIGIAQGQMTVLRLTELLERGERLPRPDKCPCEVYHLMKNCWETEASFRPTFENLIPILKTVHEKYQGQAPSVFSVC

17 compounds from patent publication US10799507B2, “5-(7H-pyrrolo[2,3-d]pyrimidin-4-yl)-5-azaspiro[2.5]octane-8-carboxylic acid derivatives as novel JAK kinase inhibitors” (LEO Pharma A/S, priority 2017, dated 2020) can be followed below.

pEC50: −log10 of the molar value.

Sequence of JAK1 (P23458 850-1154): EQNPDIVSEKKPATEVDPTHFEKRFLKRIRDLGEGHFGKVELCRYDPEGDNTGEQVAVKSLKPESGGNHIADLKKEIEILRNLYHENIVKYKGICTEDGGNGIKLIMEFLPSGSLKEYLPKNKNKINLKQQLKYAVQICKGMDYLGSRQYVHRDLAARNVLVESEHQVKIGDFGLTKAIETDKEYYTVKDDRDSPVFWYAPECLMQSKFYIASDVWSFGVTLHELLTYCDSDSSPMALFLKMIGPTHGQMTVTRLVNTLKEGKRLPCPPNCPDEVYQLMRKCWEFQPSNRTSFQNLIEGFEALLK

As to `O=C(NC[C@H](O)C1CCC1)[C@H]1CCN(c2ncnc3[nH]ccc23)CC12CC2` [Example 25, (8S)-N-[(2R)-2-cyclobutyl-2-hydroxy-ethyl]-5-(7H-pyrrolo[2,3-d]pyrimidin-4-yl)-5-azaspiro[2.5]octane-8-carboxamide], the pEC50 was 7.87 in data set [1], 8.89 in data set [2], 8.47 in data set [4] and 7.95 in data set [5]. Further, in data set [3], the CLint scaled at 0.5 μM stood at 46 mL/min/kg.
The corresponding values for `N#Cc1ccc(CNC(=O)C2CCN(c3ncnc4[nH]ccc34)CC23CC3)cc1` (stereo not shown) [Example 26, N-[(4-cyanophenyl)methyl]-5-(7H-pyrrolo[2,3-d]pyrimidin-4-yl)-5-azaspiro[2.5]octane-8-carboxamide] are 7.95, 8.85, 8.19, 6.71 and 78 mL/min/kg.
Turning to `C[C@](CO)(NC(=O)[C@H]1CCN(c2ncnc3[nH]ccc23)CC12CC2)c1ccc(C#N)cc1` [Example 27, (8S)-N-[(1S)-1-(4-cyanophenyl)-2-hydroxy-1-methyl-ethyl]-5-(7H-pyrrolo[2,3-d]pyrimidin-4-yl)-5-azaspiro[2.5]octane-8-carboxamide], the pEC50 in data set [1] was 8.15; in data set [2] it was 8.85; in data set [4], 8.49; in data set [5], 7.35. For the same compound, the CLint scaled at 0.5 μM in data set [3] came to 61 mL/min/kg.
The corresponding values for `C[C@@](CO)(NC(=O)[C@H]1CCN(c2ncnc3[nH]ccc23)CC12CC2)c1ccc(C#N)cc1` [Example 28, (8S)-N-[(1R)-1-(4-cyanophenyl)-2-hydroxy-1-methyl-ethyl]-5-(7H-pyrrolo[2,3-d]pyrimidin-4-yl)-5-azaspiro[2.5]octane-8-carboxamide] are 8.01, 8.85, 8.26, 7.25 and 132 mL/min/kg.
The corresponding values for `N#Cc1ccc([C@@H](O)CNC(=O)[C@H]2CCN(c3ncnc4[nH]ccc34)CC23CC3)cc1` [Example 29, (8S)-N-[(2R)-2-(4-cyanophenyl)-2-hydroxy-ethyl]-5-(7H-pyrrolo[2,3-d]pyrimidin-4-yl)-5-azaspiro[2.5]octane-8-carboxamide] are 8.19, 8.85, 8.54, 7.39 and 115 mL/min/kg.
The corresponding values for `N#Cc1ccc(CNC(=O)[C@H]2CCN(c3ncnc4[nH]ccc34)CC23CC3)c(F)c1` [Example 31, (8S)-N-[(4-cyano-2-fluoro-phenyl)methyl]-5-(7H-pyrrolo[2,3-d]pyrimidin-4-yl)-5-azaspiro[2.5]octane-8-carboxamide] are 7.81, 8.85, 8.19, 7.20 and 166 mL/min/kg.
`O=C(NC[C@@H](O)C1CCCC1)[C@H]1CCN(c2ncnc3[nH]ccc23)CC12CC2` [Example 32, (8S)-N-[(2S)-2-cyclopentyl-2-hydroxy-ethyl]-5-(7H-pyrrolo[2,3-d]pyrimidin-4-yl)-5-azaspiro[2.5]octane-8-carboxamide]: the pEC50 was 8.08 in data set [1], 8.74 in data set [2], 8.28 in data set [4] and 7.60 in data set [5]. For the same compound, the CLint scaled at 0.5 μM in data set [3] worked out at 159 mL/min/kg.
For `O=C(N[C@@H](CO)c1ccc(F)cc1F)[C@H]1CCN(c2ncnc3[nH]ccc23)CC12CC2` [Example 34, (8S)-N-[(1R)-1-(2,4-difluorophenyl)-2-hydroxy-ethyl]-5-(7H-pyrrolo[2,3-d]pyrimidin-4-yl)-5-azaspiro[2.5]octane-8-carboxamide], in that order: 8.19, 8.72, 8.43, 7.48 and 69 mL/min/kg.
For `O=C(NCC1(CO)CC(F)(F)C1)C1CCN(c2ncnc3[nH]ccc23)CC12CC2` (stereo not shown) [Example 35, N-[[3,3-difluoro-1-(hydroxymethyl)cyclobutyl]methyl]-5-(7H-pyrrolo[2,3-d]pyrimidin-4-yl)-5-azaspiro[2.5]octane-8-carboxamide], in that order: 8.07, 8.72, 8.32, 7.14 and 41 mL/min/kg.
The corresponding values for `N#Cc1ccc([C@@H](O)CNC(=O)[C@H]2CCN(c3ncnc4[nH]ccc34)CC23CC3)nc1` [Example 36, (8S)-N-[(2S)-2-(5-cyano-2-pyridyl)-2-hydroxy-ethyl]-5-(7H-pyrrolo[2,3-d]pyrimidin-4-yl)-5-azaspiro[2.5]octane-8-carboxamide] are 7.60, 8.70, 8.06, 7.15 and 72 mL/min/kg.
For the compound `Cc1cc(C#N)ccc1[C@H](CO)NC(=O)[C@H]1CCN(c2ncnc3[nH]ccc23)CC12CC2` [Example 37, (8S)-N-[(1R)-1-(4-cyano-2-methyl-phenyl)-2-hydroxy-ethyl]-5-(7H-pyrrolo[2,3-d]pyrimidin-4-yl)-5-azaspiro[2.5]octane-8-carboxamide], the pEC50 in data set [1] was 7.44; in data set [2], 8.70; in data set [4], 7.99; in data set [5], 6.99. Also, the CLint scaled at 0.5 μM in data set [3] came out at 91 mL/min/kg.
For `O=C(NCC(O)c1ccc(F)cn1)[C@H]1CCN(c2ncnc3[nH]ccc23)CC12CC2` (stereo partly drawn) [Example 38, (8S)-N-[2-(5-fluoro-2-pyridyl)-2-hydroxy-ethyl]-5-(7H-pyrrolo[2,3-d]pyrimidin-4-yl)-5-azaspiro[2.5]octane-8-carboxamide], in that order: 7.47, 8.66, 8.05, 7.49 and 73 mL/min/kg.
For `N#Cc1ccc(C(O)CNC(=O)C2CCN(c3ncnc4[nH]ccc34)CC23CC3)cc1` (stereo not shown) [Example 39, N-[2-(4-cyanophenyl)-2-hydroxy-ethyl]-5-(7H-pyrrolo[2,3-d]pyrimidin-4-yl)-5-azaspiro[2.5]octane-8-carboxamide], in that order: 7.94, 8.62, 8.32, 7.12 and 186 mL/min/kg.
On to `Cc1cc([C@H](O)[C@H](C)NC(=O)[C@H]2CCN(c3ncnc4[nH]ccc34)CC23CC3)ccc1F` [Example 40, (8S)-N-[(1S,2S)-2-(4-fluoro-3-methyl-phenyl)-2-hydroxy-1-methyl-ethyl]-5-(7H-pyrrolo[2,3-d]pyrimidin-4-yl)-5-azaspiro[2.5]octane-8-carboxamide], for which the pEC50 was 7.40 in data set [1], 8.62 in data set [2], 8.08 in data set [4] and 7.39 in data set [5]. Moreover, the CLint scaled at 0.5 μM in data set [3] is more than 200 mL/min/kg.
For `C[C@H](NC(=O)[C@H]1CCN(c2ncnc3[nH]ccc23)CC12CC2)[C@@H](O)c1ccc(F)cn1` [Example 41, (8S)-N-[(1S,2R)-2-(5-fluoro-2-pyridyl)-2-hydroxy-1-methyl-ethyl]-5-(7H-pyrrolo[2,3-d]pyrimidin-4-yl)-5-azaspiro[2.5]octane-8-carboxamide], in that order: 7.31, 8.60, 8.30, 7.47 and 166 mL/min/kg.
The corresponding values for `O=C(N[C@H](CO)C(=O)OCC1CC(F)(F)C1)[C@H]1CCN(c2ncnc3[nH]ccc23)CC12CC2` [Example 42, (3,3-difluorocyclobutyl)methyl (2R)-3-hydroxy-2-[[(8S)-5-(7H-pyrrolo[2,3-d]pyrimidin-4-yl)-5-azaspiro[2.5]octane-8-carbonyl]amino]propanoate] are 7.69, 8.57, 8.17, 7.29 and more than 200 mL/min/kg.
Take `C[C@H](NC(=O)[C@H]1CCN(c2ncnc3[nH]ccc23)CC12CC2)[C@@H](O)c1ccc(C#N)cc1` [Example 43, (8S)-N-[(1S,2S)-2-(4-cyanophenyl)-2-hydroxy-1-methyl-ethyl]-5-(7H-pyrrolo[2,3-d]pyrimidin-4-yl)-5-azaspiro[2.5]octane-8-carboxamide]: the pEC50 in data set [1] was 8.06; in data set [2] it was 8.55; in data set [4], 8.28; in data set [5] it was 6.88. For the same compound, the CLint scaled at 0.5 μM in data set [3] came to 166 mL/min/kg.

In general, pEC50 refers to the negative decadic logarithm of the EC50, by convention in mol/L. High values mean a low EC50, low ones a high EC50.
